Source: patent US6174907A, “Benzimidazole compounds containing 1,2,4-triazole ring, and compositions and methods of use containing the same” (Fuji Photo Film Co., Ltd., priority 1995, dated 2001)
Like-named read-outs stand apart in the source and are kept apart here.

Key:
[1] = system: mouse peritoneal macrophages; assay: Cytotoxicity examined microscopically (morphological alteration of cells); format: cell-based, mouse (female ICR); conditions: 5 μM, observed microscopically
Description: (§1) Activity of the compounds of the present invention for suppressing the foaming of macrophages, which triggers arterial sclerosis, was examined by an in vitro experiment using mouse peritoneal macrophages. 15-Week old female ICR mice (Nippon SLC) were subjected to bleeding by cutting off their cervicalis, and Hanks buffer (Nippon Seiyaku) was injected into their peritoneal cavities. After abdominal regions of the mice were massaged, the buffer was recovered immediately, and then the resulting buffer was centrifuged at 1,000 r.p.m. for five minutes to collect peritoneal macrophages. Then, the collected macrophages were suspended in GTI medium (Wako Pure Chemical Industries), and inoculated onto a 24-well microtiter plate. After the macrophages were cultivated at 37° C. under 5% CO2 for two hours, the culture medium was changed with Dulbecco Modified Eagle Medium (MEM, Nippon Seiyaku). The macrophages were further cultivated at 37° C. under 5% CO2 for 16 hours, and then a test compound and liposomes were added to the culture.
(§2) After cultivation was further continued at 37° C. under 5% CO2 for 16 hours, lipid fraction was extracted with chloroform and methanol. The extracted lipid fraction was dissolved in isopropyl alcohol, and the produced cholesterol ester (CE) was quantified by an enzymatic luminescence method. Yield of the cholesterol ester was calculated as a relative ratio based on yield of the control as 100% where no test compound was added. Cytotoxicity was examined microscopically by observing morphological alteration of cells. In the tables, compound numbers correspond to those of the compounds of present invention described in the examples.

[2] = system: mouse peritoneal macrophages; assay: Suppression of foaming of macrophages (cholesterol ester synthesis) in vitro; format: cell-based, mouse (female ICR); conditions: 5 μM, 16 hours, relative to control as 100%, smaller value = more potent suppression; for activity at 5 µM: Mus musculus, Peritoneal macrophage, read-out: Rate of CE synthesis (%)
Description: Activity of the compounds of the present invention for suppressing the foaming of macrophages
as §1
1) Test compound: dissolved in DMSO (Wako Pure Chemical Industries),
PC: Phosphatidylcholine (Funakoshi);
PS: Phosphatidylserine (Funakoshi);
DCP: Dicetylphosphate (Funakoshi);
CHOL: Cholesterol (Sigma)
as §2

SMILES | Cytotoxicity ([1]; Table 3) | activity at 5 µM ([2]; Table 3) [%] | Cytotoxicity ([1]; Table 4) | activity at 5 µM ([2]; Table 4) [%] | Rate of CE synthesis (%) ([2]; Table 4)
c1ccc2[nH]c(SCCCCCSc3nc4ccccc4o3)nc2c1 [Compound A37, 1-(2'-benzimidazolylthio)-5-(2"-benzoxazolylthio)pentane] | Not observed | 13 | – | – | –
Cc1cc2nc(SCCCCCSc3nc4ccccc4o3)[nH]c2cc1C [Compound A38] | Not observed | 16 | – | – | –
c1ccc(-c2ccc3oc(SCCCCCSc4nc5ccccc5[nH]4)nc3c2)cc1 [Compound A39, 1-(2'-benzimidazolylthio)-5-(2"-(5"-phenylbenzoxazolyl)thio)pentane] | Not observed | 24 | – | – | –
c1ccc2[nH]c(SCCCCCSc3ncc[nH]3)nc2c1 [Compound B1, 1-(2'-benzimidazolylthio)-5-(2"-imidazolylthio)pentane] | – | – | Not observed | 41 | –
Cn1ccnc1SCCCCCSc1nc2ccccc2[nH]1 [Compound B2] | – | – | Not observed | 16 | –
c1ccc(-n2ccnc2SCCCCCSc2nc3ccccc3[nH]2)cc1 [Compound B3] | – | – | Not observed | 34 | –
c1ccc(-c2cnc(SCCCCCSc3nc4ccccc4[nH]3)n2-c2ccccc2)cc1 [Compound B4] | – | – | Not observed | 47 | –
c1ccc2[nH]c(SCCCCCSc3nnc[nH]3)nc2c1 [Compound B5] | – | – | Not observed | 14 | –
Cn1cnnc1SCCCCCSc1nc2ccccc2[nH]1 [Compound B6] | – | – | Not observed | 22 | –
c1ccc(-n2cnnc2SCCCCCSc2nc3ccccc3[nH]2)cc1 [Compound B7] | – | – | Not observed | 21 | –
Cc1nnc(SCCCCCSc2nc3ccccc3[nH]2)n1C [Compound B8] | – | – | Not observed | 24 | –
CC(=O)Nc1nnc(SCCCCCSc2nc3ccccc3[nH]2)n1C [Compound B9] | – | – | Not observed | 35 | –
Cn1nnnc1SCCCCCSc1nc2ccccc2[nH]1 [Compound B10] | – | – | Not observed | 32 | –
CCCCCCCCn1nnnc1SCCCCCSc1nc2ccccc2[nH]1 [Compound B11] | – | – | Not observed | 18 | –
c1ccc(-n2nnnc2SCCCCCSc2nc3ccccc3[nH]2)cc1 [Compound B12] | – | – | Not observed | 14 | –
Cn1c(=O)c2nc(SCCCCCSc3nc4ccccc4[nH]3)[nH]c2n(C)c1=O [Compound B13] | – | – | Not observed | 26 | –
Oc1ncnc2[nH]c(SCCCCCSc3nc4ccccc4[nH]3)nc12 [Compound B14] | – | – | Not observed | 48 | –
c1ccc2[nH]c(SCCCCCSC3=NCCS3)nc2c1 [Compound B15] | – | – | Not observed | 11 | –
CC(=O)Nc1nnc(SCCCCCSc2nc3ccccc3[nH]2)s1 [Compound B17] | – | – | Not observed | 18 | –

SMILES | Cytotoxicity ([1]; Table 3) | activity at 5 µM ([2]; Table 3) [%] | Cytotoxicity ([1]; Table 4) | activity at 5 µM ([2]; Table 4) [%] | Rate of CE synthesis (%) ([2]; Table 4)
CN(C)C(=O)c1nnc(SCCCCCSc2nc3ccccc3[nH]2)s1 [Compound B18] | – | – | Not observed | 35 | –
CSc1nnc(SCCCCCSc2nc3ccccc3[nH]2)s1 [Compound B19] | – | – | Not observed | 21 | –
CN(C)CCSc1nnc(SCCCCCSc2nc3ccccc3[nH]2)s1 [Compound B20] | – | – | Not observed | 24 | –
c1ccc2[nH]c(SCCCCCSc3nnc(SCCn4ccnc4)s3)nc2c1 [Compound B21] | – | – | Not observed | 11 | –
S=c1sc(SCCCCCSc2nc3ccccc3[nH]2)nn1-c1ccccc1 [Compound B22] | – | – | Not observed | 21 | –
CC1(C)COC(SCCCCCSc2nc3ccccc3[nH]2)=N1 [Compound B23] | – | – | Not observed | 38 | –
c1ccc2[nH]c(SCCCCCSc3nnc(-c4ccncc4)o3)nc2c1 [Compound B24] | – | – | Not observed | 9.5 | –
Cc1nnc(SCCCCCSc2nc3ccccc3[nH]2)o1 [Compound B25] | – | – | Not observed | 41 | –
c1ccc(-c2nnc(SCCCCCSc3nc4ccccc4[nH]3)o2)cc1 [Compound B26] | – | – | Not observed | 12 | –
c1ccc(-c2noc(SCCCCCSc3nc4ccccc4[nH]3)n2)cc1 [Compound B27] | – | – | Not observed | 15 | –
c1ccc2[nH]c(SCCCCCSc3ccncc3)nc2c1 [Compound B28] | – | – | Not observed | 7.6 | –
c1ccc(SCCCCSc2nc3ccccc3[nH]2)nc1 [Compound B29] | – | – | Not observed | 14 | –
c1ccc(SCCCCCSc2nc3ccccc3[nH]2)nc1 [Compound B30, 5-(2'-Benzimidazolylthio)-1-(2"-pyridylthio)pentane] | – | – | Not observed | 9 | –
c1ccc(SCCCCCCSc2nc3ccccc3[nH]2)nc1 [Compound B31] | – | – | Not observed | 27 | –
c1ccc(SCCCCCCCCSc2nc3ccccc3[nH]2)nc1 [Compound B32] | – | – | Not observed | 37 | –
Cc1cc2nc(SCCCCCSc3ccccn3)[nH]c2cc1C [Compound B33] | – | – | Not observed | 18 | –
COc1ccc2[nH]c(SCCCCCSc3ccccn3)nc2c1 [Compound B34] | – | – | Not observed | 37 | –
Cc1ccc2[nH]c(SCCCCCSc3ccccn3)nc2c1 [Compound B35] | – | – | Not observed | 46 | –
CCOC(=O)c1ccc2[nH]c(SCCCCCSc3ccccn3)nc2c1 [Compound B36] | – | – | Not observed | 26 | –

SMILES | Cytotoxicity ([1]; Table 3) | activity at 5 µM ([2]; Table 3) [%] | Cytotoxicity ([1]; Table 4) | activity at 5 µM ([2]; Table 4) [%] | Rate of CE synthesis (%) ([2]; Table 4)
CCC(=O)Nc1ccc2[nH]c(SCCCCCSc3ccccn3)nc2c1 [Compound B37] | – | – | Not observed | 20 | –
CS(=O)(=O)Nc1ccc2[nH]c(SCCCCCSc3ccccn3)nc2c1 [Compound B38] | – | – | Not observed | 22 | –
CN(C)C(=O)c1ccc2[nH]c(SCCCCCSc3ccccn3)nc2c1 [Compound B39] | – | – | Not observed | 28 | –
[O-][n+]1ccccc1SCCCCCSc1nc2ccccc2[nH]1 [Compound B40] | – | – | Not observed | 25 | –
Cc1ccnc(SCCCCCSc2nc3ccccc3[nH]2)c1 [Compound B41] | – | – | Not observed | 19 | –
O=[N+]([O-])c1ccnc(SCCCCCSc2nc3ccccc3[nH]2)c1 [Compound B42] | – | – | Not observed | 12 | –
c1ccc(CCCCCSc2nc3ccccc3[nH]2)nc1 [Compound B43, 1-(2'-benzimidazolylthio)-5-(2"-pyridyl)pentane] | – | – | Not observed | – | 12
Clc1cc2nc(CCCCCSc3ccccn3)[nH]c2cc1Cl [Compound B44] | – | – | Not observed | 51 | –
Cc1cc2nc(CCCCCSc3ccccn3)[nH]c2cc1C [Compound B45] | – | – | Not observed | 48 | –
O=[N+]([O-])c1ccc2[nH]c(CCCCCSc3ccccn3)nc2c1 [Compound B46] | – | – | Not observed | 36 | –
c1ccc(SCCCCCCCc2nc3ccccc3[nH]2)nc1 [Compound B47] | – | – | Not observed | 23 | –
c1ccc(SCCCCCCCCCCCc2nc3ccccc3[nH]2)nc1 [Compound B48] | – | – | Not observed | 41 | –
Cc1ccnc(SCCCCCSc2nc3ccccc3[nH]2)n1 [Compound B50] | – | – | Not observed | 22 | –
Cc1cc(C)nc(SCCCCCSc2nc3ccccc3[nH]2)n1 [Compound B51] | – | – | Not observed | 24 | –
Cc1cc(O)nc(SCCCCCSc2nc3ccccc3[nH]2)n1 [Compound B52] | – | – | Not observed | 49 | –
Oc1ccnc(SCCCCCSc2nc3ccccc3[nH]2)c1 [Compound B53] | – | – | Not observed | 52 | –
c1ccc2[nH]c(SCCCCCSC3=NCCCN3)nc2c1 [Compound B54] | – | – | Not observed | 24 | –
CC1=CC(C)(C)NC(SCCCCCSc2nc3ccccc3[nH]2)=N1 [Compound B55] | – | – | Not observed | 52 | –
